{"source": "PubChem BioAssay AID1117355", "about": "(Cheminformatics & Chemogenomics Research Group (CCRG), …, 2015)", "note": "The source made the active and inactive calls. The rule behind the calls is not given here.", "data": [{"molecular_target": "Glycogen synthase kinase-3 beta (Homo sapiens) (UniProt P49841)", "sequence (P49841 whole entry, looked up)": "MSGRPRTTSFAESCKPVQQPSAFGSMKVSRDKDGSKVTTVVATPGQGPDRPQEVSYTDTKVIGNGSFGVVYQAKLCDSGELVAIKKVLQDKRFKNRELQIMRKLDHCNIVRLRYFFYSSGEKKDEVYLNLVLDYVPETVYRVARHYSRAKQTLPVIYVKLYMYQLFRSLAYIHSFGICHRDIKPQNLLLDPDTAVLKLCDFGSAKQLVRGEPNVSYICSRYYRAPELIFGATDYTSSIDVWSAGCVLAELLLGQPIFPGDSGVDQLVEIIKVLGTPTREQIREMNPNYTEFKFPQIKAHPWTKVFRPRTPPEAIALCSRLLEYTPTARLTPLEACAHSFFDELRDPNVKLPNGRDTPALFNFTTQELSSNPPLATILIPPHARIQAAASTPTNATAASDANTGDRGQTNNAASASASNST", "assay": "NPC library primary assay, GSK-3β enzyme inhibitors, biochemical, Homo sapiens, LANCE Ultra TR-FRET detection (AID 1117355)", "settings": "LANCE Ultra TR-FRET kinase activity; at 20 µM (top of the series)", "values": [{"smiles": "Nc1ccc2cc3ccc(N)cc3nc2c1", "inhibition": "-57.5% (inactive)"}, {"smiles": "CC(C)(C)C(=O)OCOP(=O)(COCCn1cnc2c(N)ncnc21)OCOC(=O)C(C)(C)C", "inhibition": "7.97% (inactive)"}, {"smiles": "COc1cc([C@@H]2c3cc4c(cc3[C@H](O)[C@H]3COC(=O)[C@H]23)OCO4)cc(OC)c1OC", "inhibition": "26.6% (inactive)"}, {"smiles": "COC(=O)Nc1nc2ccc(C(=O)c3ccccc3)cc2[nH]1", "inhibition": "25.4% (inactive)"}, {"smiles": "Cc1ccccc1C(=O)Nc1ccc(C(=O)N2CCCC(N(C)C)c3ccccc32)cc1", "note": "(stereo unspecified)", "inhibition": "18.2% (inactive)"}, {"smiles": "CNC(=O)c1cc(Oc2ccc(NC(=O)Nc3ccc(Cl)c(C(F)(F)F)c3)cc2)ccn1", "inhibition": "47.6% (inactive)"}, {"smiles": "CCCOc1ccc2nc(NC(=O)OC)[nH]c2c1", "inhibition": "-5.09% (inactive)"}, {"smiles": "CCC(C)n1ncn(-c2ccc(N3CCN(c4ccc(OC[C@H]5CO[C@](Cn6cncn6)(c6ccc(Cl)cc6Cl)O5)cc4)CC3)cc2)c1=O", "note": "(stereo partly specified)", "inhibition": "14.1% (inactive)"}, {"smiles": "CN(C)c1ccc2nc3ccc(=[N+](C)C)cc-3sc2c1", "inhibition": "-210% (inactive)"}, {"smiles": "Cc1nc2ccc(CN(C)c3ccc(C(=O)N[C@@H](CCC(=O)O)C(=O)O)s3)cc2c(=O)[nH]1", "inhibition": "81.3%"}, {"smiles": "COc1cccc2c1C(=O)c1c(O)c3c(c(O)c1C2=O)C[C@@](O)(C(C)=O)C[C@@H]3O[C@H]1C[C@H](N)[C@H](O)[C@H](C)O1", "inhibition": "7.12% (inactive)"}, {"smiles": "CCCCCCNC(=O)n1cc(F)c(=O)[nH]c1=O", "inhibition": "-7.61% (inactive)"}, {"smiles": "CCCCCCCCCCCCCC[N+](C)(C)C", "inhibition": "-4.51% (inactive)"}, {"smiles": "CCCCC1C(=O)N(c2ccccc2)N(c2ccc(O)cc2)C1=O", "note": "(stereo unspecified)", "inhibition": "5.48% (inactive)"}, {"smiles": "NC(=NCCCCCCN=C(N)/N=C(\\N)Nc1ccc(Cl)cc1)/N=C(\\N)Nc1ccc(Cl)cc1", "inhibition": "0.77% (inactive)"}, {"smiles": "CC[C@]1(O)C[C@@H]2CN(CCc3c([nH]c4ccccc34)[C@@](C(=O)OC)(c3cc4c(cc3OC)N(C)[C@H]3[C@@](O)(C(=O)OC)[C@H](OC(C)=O)[C@]5(CC)C=CCN6CC[C@]43[C@@H]65)C2)C1", "inhibition": "-4.66% (inactive)"}, {"smiles": "O=C(CCl)c1ccc(Cl)cc1Cl", "inhibition": "9.91% (inactive)"}, {"smiles": "Cc1cc2c(C(C)C)c(O)c(O)c(C=O)c2c(O)c1-c1c(C)cc2c(C(C)C)c(O)c(O)c(C=O)c2c1O", "inhibition": "7.52% (inactive)"}, {"smiles": "Cc1nc(N)nc(N)c1-c1ccc(Cl)c(Cl)c1", "inhibition": "-1.14% (inactive)"}, {"smiles": "O=c1[nH]c(=O)n([C@H]2C[C@H](O)[C@@H](CO)O2)cc1C(F)(F)F", "inhibition": "17.2% (inactive)"}, {"smiles": "COC(=O)Nc1nc2ccc(S(=O)c3ccccc3)cc2[nH]1", "note": "(stereo unspecified)", "inhibition": "-3.53% (inactive)"}, {"smiles": "O=C(CCCCCCC(=O)Nc1ccccc1)NO", "inhibition": "-28.8% (inactive)"}, {"smiles": "Cc1ccc2nc(N)[nH]c(=O)c2c1Sc1ccncc1", "inhibition": "-35.9% (inactive)"}, {"smiles": "O=C(Nc1ccc([N+](=O)[O-])cc1Cl)c1cc(Cl)ccc1O", "inhibition": "-11.3% (inactive)"}, {"smiles": "COc1ccc2cc1Oc1ccc(cc1)C[C@H]1c3c(cc4c(c3Oc3cc5c(cc3OC)CCN(C)[C@@H]5C2)OCO4)CCN1C", "inhibition": "2.24% (inactive)"}, {"smiles": "COc1ccc(-c2ccc3cc(C(=O)O)ccc3c2)cc1C12CC3CC(CC(C3)C1)C2", "inhibition": "79.4%"}, {"smiles": "COc1ccc(-c2nc3ccc(C4=NNC(=O)CC4C)cc3[nH]2)cc1", "note": "(stereo unspecified)", "inhibition": "-64.9% (inactive)"}, {"smiles": "Cc1ccc([N+](=O)[O-])[c]2c1[O][Hg]2", "inhibition": "66.1%"}, {"smiles": "S=c1nc[nH]c2nc[nH]c12", "inhibition": "20.7% (inactive)"}, {"smiles": "Cc1cc(O)c2ccccc2c1O", "inhibition": "50.4%"}, {"smiles": "O=C(NOCC1CC1)c1ccc(F)c(F)c1Nc1ccc(I)cc1Cl", "inhibition": "-12.6% (inactive)"}, {"smiles": "CSc1ccc2c(c1)C(N1CCN(C)CC1)Cc1ccccc1S2", "note": "(stereo unspecified)", "inhibition": "0.73% (inactive)"}, {"smiles": "COc1c(C)c2c(c(O)c1C/C=C(\\C)CCC(=O)OCCN1CCOCC1)C(=O)OC2", "inhibition": "11.3% (inactive)"}, {"smiles": "Cc1nc(Nc2ncc(C(=O)Nc3c(C)cccc3Cl)s2)cc(N2CCN(CCO)CC2)n1", "inhibition": "38.8% (inactive)"}, {"smiles": "CCCN(CCC)C(=O)C(CCC(=O)OCCCN1CCN(CCOC(=O)Cc2c(C)n(C(=O)c3ccc(Cl)cc3)c3ccc(OC)cc23)CC1)NC(=O)c1ccccc1", "note": "(stereo unspecified)", "inhibition": "0.27% (inactive)"}, {"smiles": "Cc1cc(C2CCCCC2)n(O)c(=O)c1", "inhibition": "0.84% (inactive)"}, {"smiles": "CC[C@@H]([C@H](C)O)n1ncn(-c2ccc(N3CCN(c4ccc(OC[C@@H]5CO[C@@](Cn6cncn6)(c6ccc(F)cc6F)C5)cc4)CC3)cc2)c1=O", "inhibition": "8.55% (inactive)"}, {"smiles": "COC(=O)c1nc(Cl)c(Cl)nc1N", "inhibition": "20.8% (inactive)"}, {"smiles": "C[n+]1c2cc(N)ccc2cc2ccc(N)cc21", "note": "(tested in a mixture with another compound)", "inhibition": "-24.7% (inactive)"}, {"smiles": "O=[N+]([O-])c1ccc(O)c2ncccc12", "inhibition": "-9.81% (inactive)"}, {"smiles": "COc1cc2nc(N3CCN(C(=O)c4ccco4)CC3)nc(N)c2cc1OC", "inhibition": "-50.4% (inactive)"}, {"smiles": "CC(C)C[C@H](NC(=O)[C@H](CCc1ccccc1)NC(=O)CN1CCOCC1)C(=O)N[C@@H](Cc1ccccc1)C(=O)N[C@@H](CC(C)C)C(=O)[C@@]1(C)CO1", "inhibition": "20.4% (inactive)"}, {"smiles": "O=c1[nH]c(=O)n([C@H]2C[C@H](O)[C@@H](CO)O2)cc1F", "inhibition": "-21.3% (inactive)"}, {"smiles": "CC(C)C[C@H](NC(=O)[C@H](Cc1ccccc1)NC(=O)c1cnccn1)B(O)O", "inhibition": "1.64% (inactive)"}, {"smiles": "Nc1nc(=S)c2[nH]cnc2[nH]1", "inhibition": "-30.7% (inactive)"}, {"smiles": "CCC1=C[C@@H]2CN(C1)Cc1c([nH]c3ccccc13)[C@@](C(=O)OC)(c1cc3c(cc1OC)N(C)[C@H]1[C@@](O)(C(=O)OC)[C@H](OC(C)=O)[C@]4(CC)C=CCN5CC[C@]31[C@@H]54)C2", "inhibition": "24.2% (inactive)"}, {"smiles": "CN1CC[C@H](c2c(O)cc(O)c3c(=O)cc(-c4ccccc4Cl)oc23)[C@H](O)C1", "inhibition": "99.9%"}, {"smiles": "C[C@@]12C(=O)OC(=O)[C@]1(C)C1CCC2O1", "inhibition": "2.16% (inactive)"}, {"smiles": "O=C1c2c(O)ccc(O)c2C(=O)c2c(NCCNCCO)ccc(NCCNCCO)c21", "inhibition": "-5.18% (inactive)"}, {"smiles": "CCN(CC)CCNC(=O)c1c(C)[nH]c(/C=C2\\C(=O)Nc3ccc(F)cc32)c1C", "inhibition": "62.9%"}, {"smiles": "CC(C)(C)C1CCC(CC2=C(O)c3ccccc3C(=O)C2=O)CC1", "note": "(stereo unspecified)", "inhibition": "10.2% (inactive)"}, {"smiles": "COc1cc(NCc2ccc3nc(N)nc(N)c3c2C)cc(OC)c1OC", "inhibition": "2.46% (inactive)"}, {"smiles": "O=c1c(-c2ccccc2)c1-c1ccccc1", "inhibition": "31.4% (inactive)"}, {"smiles": "COC(=O)Nc1nc2ccc(C(=O)c3cccs3)cc2[nH]1", "inhibition": "42.2% (inactive)"}, {"smiles": "CC[C@]1(O)C[C@H]2CN(CCc3c([nH]c4ccccc34)[C@@](C(=O)OC)(c3cc4c(cc3OC)N(C=O)[C@H]3[C@@](O)(C(=O)OC)[C@H](OC(C)=O)[C@]5(CC)C=CCN6CC[C@]43[C@@H]65)C2)C1", "inhibition": "-0.84% (inactive)"}, {"smiles": "COCc1c(C(C)C)nc(C(C)C)c(/C=C/[C@@H](O)C[C@@H](O)CC(=O)O)c1-c1ccc(F)cc1", "inhibition": "3.27% (inactive)"}, {"smiles": "CCN(CC)CCOc1ccc(/C(=C(\\Cl)c2ccccc2)c2ccccc2)cc1", "inhibition": "-11.9% (inactive)"}, {"smiles": "COc1cc(-c2ccc(=O)[nH]n2)ccc1OC(F)F", "inhibition": "-21.7% (inactive)"}, {"smiles": "CCc1nc(N)nc(N)c1-c1ccc(Cl)cc1", "inhibition": "-8.63% (inactive)"}, {"smiles": "Cc1cc(=O)c2c(O)c3c(O)cc(=O)c4c3c3c(cc(O)c1c23)C(C)(C)C=4O", "inhibition": "60.6%"}, {"smiles": "CC(=O)Oc1ccc(C2(c3ccc(OC(C)=O)cc3)Oc3ccccc3NC2=O)cc1", "inhibition": "19% (inactive)"}, {"smiles": "O=C(O)c1ccc(-n2nc(-c3ccccc3O)nc2-c2ccccc2O)cc1", "inhibition": "37.5% (inactive)"}, {"smiles": "Oc1c(I)cc(I)c2cccnc12", "inhibition": "-1.57% (inactive)"}, {"smiles": "CCCCCCCCCCCCCCCCCCNC(=O)OC1CCN(C(=O)OC[C@H](COC(=O)N(Cc2cccc[n+]2CC)C(=O)c2ccccc2OC)OC)CC1", "inhibition": "24% (inactive)"}, {"smiles": "COC(=O)Nc1nc2ccc(Sc3ccccc3)cc2[nH]1", "inhibition": "-21% (inactive)"}, {"smiles": "CCCCc1oc2ccccc2c1C(=O)c1cc(I)c(OCCN(CC)CC)c(I)c1", "inhibition": "26% (inactive)"}, {"smiles": "C=C(C)[C@H]1Cc2c(ccc3c2O[C@@H]2COc4cc(OC)c(OC)cc4[C@@H]2C3=O)O1", "inhibition": "21.6% (inactive)"}, {"smiles": "CC[C@@]1(O)C(=O)OCc2c1cc1n(c2=O)Cc2c-1nc1ccccc1c2/C=N/OC(C)(C)C", "inhibition": "16.9% (inactive)"}, {"smiles": "CCN(CC)CCNc1ccc(CO)c2sc3ccccc3c(=O)c12", "inhibition": "24.6% (inactive)"}, {"smiles": "COc1cc2c(c(OC)c1OC)-c1ccc(OC)c(=O)cc1[C@@H](NC(C)=O)CC2", "inhibition": "4.13% (inactive)"}, {"smiles": "C=CC(=O)Nc1cc2c(Nc3ccc(F)c(Cl)c3)ncnc2cc1OCCCN1CCOCC1", "inhibition": "31.2% (inactive)"}, {"smiles": "Oc1c(Cl)cc(Cl)cc1Sc1cc(Cl)cc(Cl)c1O", "inhibition": "81.3%"}, {"smiles": "COC(=O)Nc1nc2ccc(C(=O)C3CC3)cc2[nH]1", "inhibition": "54.4%"}, {"smiles": "Cn1cnc([N+](=O)[O-])c1Sc1ncnc2nc[nH]c12", "inhibition": "-18.2% (inactive)"}, {"smiles": "Cc1cc(C)c(/C=C2\\C(=O)Nc3ccccc32)[nH]1", "inhibition": "-34.3% (inactive)"}, {"smiles": "[O-][n+]1ccccc1SSc1cccc[n+]1[O-]", "inhibition": "-25.6% (inactive)"}, {"smiles": "CCCSc1ccc2nc(NC(=O)OC)[nH]c2c1", "inhibition": "-11.3% (inactive)"}, {"smiles": "COC(=O)[C@H]1[C@H]2C[C@@H]3c4[nH]c5cc(OC)ccc5c4CCN3C[C@H]2C[C@@H](OC(=O)/C=C/c2ccc(O)c(OC)c2)[C@@H]1OC", "inhibition": "7.56% (inactive)"}, {"smiles": "Oc1c(Cl)cc(Cl)c2cccnc12", "inhibition": "-26.5% (inactive)"}, {"smiles": "CC(=O)[C@]1(O)Cc2c(O)c3c(c(O)c2[C@@H](O[C@H]2C[C@H](N)[C@H](O)[C@H](C)O2)C1)C(=O)c1ccccc1C3=O", "inhibition": "5.63% (inactive)"}, {"smiles": "CCCCCCCCCCCCCCCC[n+]1ccccc1", "inhibition": "-21.5% (inactive)"}]}]}
